Measured values published in patent US8507547B2, “Anti-fatigue agents and oral compositions containing andrographolide as active ingredient” (Suntory Holdings Limited, priority 2007, dated 2013).

System: Balb/c mice
Assay: Water-immersion and sleep-disturbance test (weight-loaded forced swimming test, swimming time)
Assay type: in vivo
Source text: The first test is measurement of a swimming time in a water-immersion and sleep-disturbance test. This is described in detail below in Example 1. Mice raised in an environment, such as a water-immersed environment, where they were not allowed to take enough sleep or to take a comfortable posture so that they could take neither physical nor mental rest were weighted and forced to swim, and a length of time that passed until noses of the mice sank under the water for a period of 10 seconds or longer was measured (weight-loaded forced swimming test) to determine their fatigue level.
That is to say, since this animal model is a physical and mental fatigue model as well as an organ fatigue model described below, anti-fatigue action against physical and/or mental fatigue would be confirmed if the swimming time becomes longer as a result of administration of the test substance. Such anti-fatigue action is considered to be involved in reduction in fatigue stress, maintenance of physical energy under fatigue conditions (enhancement of body strength), improvement in endurance, and the like.
Effect of andrographolide on fatigue from water immersion and sleep disturbance was examined using a partially modified method of Tanaka et al. (Neuroscience Let. 352, 159-162, 2003). […] Four out of the five groups were reared as water-immersed groups; the groups were kept in cages in such a manner that each of the cages was filled with tap water at 23° C. with a water depth of 7 mm, instead of a floor covering, so that the mice were immersed in water and deprived of sleep. The mice were immersed in water for two days, andrographolide (Aldrich corp., purity 98%) was forcibly administered orally to the mice with doses of 0.5, 2, 8 mg per kilogram of body weight once daily during the two days (water-immersed and andrographolide-administered group). As a control group, one of the groups was immersed in water for two days, and distilled water was forcibly given orally to the group once daily during the two days (water-immersed control group). The remaining one of the five groups was reared as a normally-reared group; this group was kept in a cage with a normal floor covering, and distilled water was forcibly given orally to the group once daily during the two-day rearing (normally-reared control group). After the two days, each of the mice was provided with a weight corresponding to 8% of its body weight, which weight was attached to its tale, and then the mice were forced to swim in a water tank having a diameter of 18 cm and filled with water having a depth of 30 cm. A length of time that passed until the mice sank under water for a period of 10 seconds or longer (swimming time) was measured (weight-loaded forced swimming test).
The swimming time of the mice of the water-immersed group was shorter than that of the mice of the normally-reared group because of fatigue from the water immersion and sleep disturbance. The effect of andrographolide on the fatigue from the water immersion and sleep disturbance was examined by determining recovery of a reduction in the swimming time of the mice of the water-immersed group after the administration of andrographolide.
In accordance with the procedure described in Example 1, effect on water-immersion and sleep-disturbance fatigue was examined in a case in which andrographolide was administered alone to mice, a case in which alpha-lipoic acid was administered alone to mice, and a case in which a combination of andrographolide and alpha-lipoic acid was administered to mice. Eight-week-old male Balb/c mice were used as a test animal. […] Four out of the five groups served as water-immersed groups, and each of the groups was kept in a cage filled with tap water at 23° C. with a water depth of 7 mm, instead of a floor covering, so that the mice were immersed in water and deprived of sleep. […]

O=C(O)CCCCC1CCSS1 (stereo not drawn) [alpha-lipoic acid, 1,2-dithiolane-3-pentanoic acid, reference compound]
shortening of the swimming time (Example 5, FIG. 5, andrographolide 0.25 mg/kg (5a), alpha-lipoic acid 50 mg/kg (5b) or both (5c), orally once daily during two days of water immersion): prevented from shortening
increase rate of the swimming time (Example 5, swimming time of normally-reared group minus water-immersed control group = 100%, andrographolide 0.25 mg/kg, alpha-lipoic acid 50 mg/kg, alone or combined): 13%
anti-fatigue action in the fatigue animal model of mice (alpha-lipoic acid 50 mg/kg alone or with andrographolide 0.25 mg/kg, during fatigue stress): anti-fatigue action was produced
